Measurements published in patent publication US9435809B2, “Method of treating and reducing the risk of acute myelogenous leukemia” (Memorial Sloan-Kettering Cancer Center, priority 2011, dated 2016).
“Also recorded” adds a separate entry of the source.

Assays:
MO-91 cells = test: MTT growth assay of AML cell lines: MO-91; format: cell-based; conditions: at 5 μM; MTT assay after 72 hours
Procedure: (§1) Cells were treated with p300 inhibitors at different concentrations in a 96-well plate. After 72 hours, 0.1 mg MTT was added to each well. The samples were incubated at 37° C. for 4 hours and the absorbance was measured at 570 nm by spectrophotometry.

[1] = tested on: acetylated A-EK43 (AML1-ETO); test: A-EK43 acetylation in Kasumi-1 cells (IP / Western blot); format: cell-based, human; conditions: Lys-CoA-Tat 50 μM, C646 10 or 20 μM for 24 hours
Text: (§2) Anti-p300 (Millipore or Santa Cruz), anti-Flag (Sigma), anti-HA (Santa Cruz), anti-ETO (generated in the Roeder lab or Santa Cruz), anti-AML1 (Zhao, X. et al, Genes Dev 22, 640, 2008), anti-acetylated lysine (Stressgen), anti-acetylated Histone H3 (Millipore), anti-Tubulin (Sigma), anti-TAFII250 (generated in the Roeder lab) and anti-TAF7 (generated in the Roeder lab) antibodies were used. Two anti-acetylated AML1-ETO polyclonal antibodies were generated by immunizing rabbits with the synthetic peptides (TALSPGK [acetylated] MSEA SEQ ID NO: 10 or LAGK [acetylated] LRSGDRS SEQ ID NO: 11) conjugated to KLH. The polyclonal antiserum was collected and purified using a peptide affinity column. The affinity of the antibodies against acetyl-lysine AML1-ETO was measured by dot blot assays. For the dot blot assays, 5 pmol of peptide (measured by Ellman's reagent) was spotted onto a nitrocellulose membrane. The control peptides were as follows: AML1-ETOK24 peptide (TALSPGKMSEA) (SEQ ID NO: 10) and AML1-ETOK43 peptide (LAGK LRSGDRS) (SEQ ID NO: 11).
(§3) The Flag-AE, Flag-AE-ΔNHR1 (aa245-436), Flag-AE-ΔNHR2, Flag-ETO, Flag-ETO-ΔNHR1 and Flag-ETO-ΔNHR2 cDNAs were cotransfected into 80% confluent 293T cells using the FuGene 6 reagent. After 36 hours the cells were lysed in RIPA buffer with 1 mM DTT and DNAse I 1 μg/mL and a proteinase inhibitor cocktail (Roche), and incubated on ice for 30 minutes. […]

Mono-Mac-1 cells = test: MTT growth assay of AML cell lines: Mono-Mac-1; format: cell-based; conditions: at 5 μM; MTT assay after 72 hours
Procedure: as §1

HEL cells = test: MTT growth assay of AML cell lines: HEL; format: cell-based; conditions: at 5 μM; MTT assay after 72 hours
Procedure: as §1

histone H3 = test: Histone H3 acetylation in Kasumi-1 cells (Western blot); format: cell-based, human; conditions: Lys-CoA-Tat 50 μM, C646 10 or 20 μM for 24 hours
Text: as §2, §3

[2] = tested on: MLL-AF9 expressing mouse leukemia cells; test: MLL-AF9 mouse leukemia model, leukemia cells treated ex vivo and injected; format: in vivo; conditions: cells treated ex vivo 12 hours with 50 μM Lys-CoA-Tat/DDDD-Tat or 20 μM C646/C37; sublethally irradiated recipients
Procedure: (§4) Leukemia cells were obtained from two AML patients with t(8;21) by Ficoll-hypaque separation. Informed consent was obtained from the patients, according to institutional (IRB) guidelines. The cell viabilities of the primary leukemia cells, Kasumi-1 cells, HL60 cells and human CD34^+ cells were assessed by triplicate counting of trypan blue dye-excluding cells under light microscopy. The cell morphology was evaluated by Wright's staining of cells prepared by cytospin centrifugation. Blast cells were isolated from the bone marrow and spleen of the mice with AE9a or MLL-AF9 driven leukemia, and treated for 12 hours with Lys-CoA-Tat or DDDD-Tat (at 50 μM), or C646 vs. C37 (at 20 μM). Female C57Bl/6 mice were sublethally irradiated with 475 cGy, and then injected with 3×10^6 treated blast cells via tail vein.
(§5) Assays were set up in triplicates and the results expressed as the mean±SD. Statistical analyses were performed using Student's t-test. Survival functions were estimated using the Kaplan-Meier method and compared by the log-rank test.

U937 cells = test: MTT growth assay of AML cell lines: U937; format: cell-based; conditions: at 5 μM; MTT assay after 72 hours
Procedure: as §1

NB4 cells = test: MTT growth assay of AML cell lines: NB4; format: cell-based; conditions: at 5 μM; MTT assay after 72 hours
Procedure: as §1

HL60 cells = test: MTT growth assay of AML cell lines: HL60; format: cell-based; conditions: at 5 μM; MTT assay after 72 hours
Procedure: as §1

Kasumi-1 cells = test: Growth of Kasumi-1 cells; format: cell-based, human; conditions: Lys-CoA-Tat and DDDD-Tat 50 μM; C646 concentration not stated
Procedure: as §4, §1

[3] = tested on: AE9a expressing mouse leukemia cells; test: AE9a mouse AML model, leukemia cells treated ex vivo and injected; format: in vivo
Procedure: as §4, §5

THP-1 cells = test: MTT growth assay of AML cell lines: THP-1; format: cell-based; conditions: at 5 μM; MTT assay after 72 hours
Procedure: as §1

Id1, p21 and Egr1 mRNA = test: qPCR of AML1-ETO activated target genes in Kasumi-1 cells; format: cell-based, human; conditions: 24 hours, Lys-CoA-Tat 50 μM, C646 20 μM
Procedure: The RNA extraction and cDNA generation procedures were described above. The reverse transcription reaction was performed for 10 min at 25° C., 50 min at 50° C., 5 min at 85° C. and 20 min at 37° C. Real-time quantitative PCR was performed using a TaqMan 7500 sequence detector system (Applied Biosystems). The thermal cycle conditions were:
50° C. for 2 min, 95° C. for 10 min to activate Amplitaq Gold DNA polymerase, denaturation at 95° C. for 15 seconds and anneal/extension at 60° C. for 1 min (45 cycles). Quantitative PCR for HPRT was performed to normalize for cDNA loading. The relative quantification of gene expression was calculated using the method […], as described by the manufacturer.

[4] = AE9a cells treated ex vivo 12 hours, 50 μM Lys-CoA-Tat vs DDDD-Tat or 20 μM C646 vs C37

## CC1=NN(c2ccc(C(=O)O)cc2)C(=O)/C1=C\c1ccc(-c2cc(C)c(C)cc2[N+](=O)[O-])o1 [C646]
MO-91 cells
  growth of MO-91 cells: inhibited the growth
[1]
  level of acetylated A-EK43: decreased the level; also recorded: decreased acetylation
Mono-Mac-1 cells
  growth of Mono-Mac-1 cells: minimal effect
HEL cells
  growth of HEL cells: inhibited the growth
Histone H3
  level of acetylated histone H3: decreased the level
[2]
  Median survival of MLL-AF9 mice: 28 days
U937 cells
  growth of U937 cells: inhibited the growth
NB4 cells
  growth of NB4 cells: inhibited the growth
HL60 cells
  growth of HL60 cells: minimal effect
Kasumi-1 cells
  growth of Kasumi-1 cells: as did C646
[3]; [4]
  Percent of GFP+ C-Kit+ cells in peripheral blood: reduced the number; also recorded: significantly less
  WBC counts: lower white blood counts; also recorded: significantly lower
  platelet count (PLT): less thrombocytopenia; also recorded: higher
  red blood cell count (RBC): less anemia; also recorded: higher
[3]; cells treated ex vivo 12 hours with 50 μM Lys-CoA-Tat/DDDD-Tat or 20 μM C646/C37, sublethally irradiated recipients
  Median survival of AE9a mice: 43 days
THP-1 cells
  growth of THP-1 cells: minimal effect
Id1, p21 and Egr1 mRNA
  expression of AML1-ETO activated target genes (Id1, p21 and Egr1 mRNA): decreased the level; also recorded: downregulated expression
